The CombiSolv-Exp solvation set (Vermeire and Green 2021)

Assay: solvent given as SMILES

With `Clc1cc(Cl)c(-c2cc(Cl)c(Cl)c(Cl)c2Cl)cc1Cl` the “solvation free energy, 298 K” value (in CCCCCCCCO) was -13.9 kcal/mol and the “solvation free energy, 298 K” value (in O) was -3.53 kcal/mol.
In the case of `O=C(Oc1ccccc1)c1ccccc1C(=O)Oc1ccccc1`, the “solvation free energy, 298 K” value (in O) is reported as -11.6 kcal/mol.
With `CCCCCCCCCCCCCCCC(=O)OCC` the “solvation free energy, 298 K” value (in O) was -7.23 kcal/mol.
With `CCCCCCl` the “solvation free energy, 298 K” value (in C1CCOC1) was -5.67 kcal/mol, the “solvation free energy, 298 K” value (in C1CCOCC1) was -5.23 kcal/mol and the “solvation free energy, 298 K” value (in C1COCCO1) was -4.94 kcal/mol. For the same compound, the “solvation free energy, 298 K” value (in C=CCCCCCCCCCCCCCC) was -4.46 kcal/mol, the “solvation free energy, 298 K” value (in CC(C)=O) was -4.86 kcal/mol and the “solvation free energy, 298 K” value (in CCCCCC) was -4.76 kcal/mol. The “solvation free energy, 298 K” value (in CCCCCCCCC=CCCCCCCCC(=O)OCC(COC(=O)CCCCCCCC=CCCCCCCCC)OC(=O)CCCCCCCC=CCCCCCCCC) was -4.62 kcal/mol, the “solvation free energy, 298 K” value (in CCCCCCCCCCCCCCCC) was -4.39 kcal/mol and the “solvation free energy, 298 K” value (in CCCCOCCCC) was -4.79 kcal/mol. The “solvation free energy, 298 K” value (in O) was -0.06 kcal/mol.
With `Cc1ccc(CN)cc1` the “solvation free energy, 298 K” value (in O) was -6.07 kcal/mol.
With `CCI` the “solvation free energy, 298 K” value (in Brc1cccc2ccccc12) was -3.97 kcal/mol, the “solvation free energy, 298 K” value (in Brc1ccccc1) was -4.23 kcal/mol and the “solvation free energy, 298 K” value (in C1CCOC1) was -4.45 kcal/mol. The “solvation free energy, 298 K” value (in C1COCCO1) was -4.21 kcal/mol, the “solvation free energy, 298 K” value (in C=CCCCCCCCCCCCCCC) was -3.53 kcal/mol and the “solvation free energy, 298 K” value (in CC1COC(=O)O1) was -3.71 kcal/mol. For the same compound, the “solvation free energy, 298 K” value (in CC#N) was -3.81 kcal/mol, the “solvation free energy, 298 K” value (in CC(=O)N(C)C) was -3.97 kcal/mol and the “solvation free energy, 298 K” value (in CC(=O)OCc1ccccc1) was -3.91 kcal/mol. For the same compound, the “solvation free energy, 298 K” value (in CC(=O)c1ccccc1) was -4.05 kcal/mol, the “solvation free energy, 298 K” value (in CC(C)(C)O) was -3.48 kcal/mol and the “solvation free energy, 298 K” value (in CC(C)=O) was -4 kcal/mol. For the same compound, the “solvation free energy, 298 K” value (in CC(C)CC(C)(C)C) was -3.61 kcal/mol, the “solvation free energy, 298 K” value (in CC(C)CCO) was -3.75 kcal/mol and the “solvation free energy, 298 K” value (in CC(C)O) was -3.56 kcal/mol. The “solvation free energy, 298 K” value (in CCC#N) was -3.94 kcal/mol, the “solvation free energy, 298 K” value (in CCC(C)=O) was -4.1 kcal/mol and the “solvation free energy, 298 K” value (in CCCBr) was -4.31 kcal/mol. The “solvation free energy, 298 K” value (in CCCCCC) was -3.73 kcal/mol, the “solvation free energy, 298 K” value (in CCCCCCC) was -3.68 kcal/mol and the “solvation free energy, 298 K” value (in CCCCCCCC) was -3.66 kcal/mol. For the same compound, the “solvation free energy, 298 K” value (in CCCCCCCCO) was -3.53 kcal/mol, the “solvation free energy, 298 K” value (in CCCCCl) was -4.15 kcal/mol and the “solvation free energy, 298 K” value (in CCCCO) was -3.63 kcal/mol. The “solvation free energy, 298 K” value (in CCCO) was -3.55 kcal/mol, the “solvation free energy, 298 K” value (in CCO) was -3.57 kcal/mol and the “solvation free energy, 298 K” value (in CCOC(=O)c1ccccc1) was -3.99 kcal/mol. The “solvation free energy, 298 K” value (in CCOC(C)=O) was -4.04 kcal/mol, the “solvation free energy, 298 K” value (in CCOCC) was -3.78 kcal/mol and the “solvation free energy, 298 K” value (in CN(C)C=O) was -3.83 kcal/mol. For the same compound, the “solvation free energy, 298 K” value (in CO) was -3.58 kcal/mol, the “solvation free energy, 298 K” value (in CS(C)=O) was -3.82 kcal/mol and the “solvation free energy, 298 K” value (in Cc1ccc(C)cc1) was -4.14 kcal/mol. The “solvation free energy, 298 K” value (in Cc1ccccc1) was -4.2 kcal/mol, the “solvation free energy, 298 K” value (in ClC1CCCCC1) was -4.19 kcal/mol and the “solvation free energy, 298 K” value (in ClC(Cl)(Cl)Cl) was -4.17 kcal/mol. For the same compound, the “solvation free energy, 298 K” value (in ClC(Cl)C(Cl)Cl) was -4.41 kcal/mol, the “solvation free energy, 298 K” value (in ClC(Cl)Cl) was -4.44 kcal/mol and the “solvation free energy, 298 K” value (in ClCCCl) was -4.2 kcal/mol. The “solvation free energy, 298 K” value (in ClCCl) was -4.12 kcal/mol, the “solvation free energy, 298 K” value (in Clc1ccccc1) was -4.22 kcal/mol and the “solvation free energy, 298 K” value (in Ic1ccccc1) was -4.29 kcal/mol. The “solvation free energy, 298 K” value (in N#Cc1ccccc1) was -4 kcal/mol, the “solvation free energy, 298 K” value (in O) was -0.74 kcal/mol and the “solvation free energy, 298 K” value (in O=C1CCCCC1) was -4.18 kcal/mol. For the same compound, the “solvation free energy, 298 K” value (in c1ccc2ncccc2c1) was -3.93 kcal/mol and the “solvation free energy, 298 K” value (in c1ccccc1) was -4.32 kcal/mol.
In the case of `CCOP(=O)(OCC)OCC`, the “solvation free energy, 298 K” value (in O) is reported as -7.5 kcal/mol.
In the case of `CC(C)SC(C)C`, the “solvation free energy, 298 K” value (in O) is reported as -1.21 kcal/mol.
In the case of `OC1COC(O)C(O)C1O` (stereo not drawn), the “solvation free energy, 298 K” value (in O) is reported as -20.5 kcal/mol.
In the case of `CC(=O)OC1C2(C)CCC(C2)C1(C)C` (stereo not drawn), the “solvation free energy, 298 K” value (in O) is reported as -2.69 kcal/mol.
In the case of `Nc1ccc2c(c1)C(=O)c1ccccc1C2=O`, the “solvation free energy, 298 K” value (in O) is reported as -11.5 kcal/mol.
With `Cc1cc(NS(=O)(=O)c2ccc(N)cc2)nc(C)n1` the “solvation free energy, 298 K” value (in O) was -21.9 kcal/mol.
For `CCOC(C)OCC`, the “solvation free energy, 298 K” value (in ClCCCl) was -5.27 kcal/mol and the “solvation free energy, 298 K” value (in O) was -3.28 kcal/mol.
In the case of `Nc1ccccc1Cl`, the “solvation free energy, 298 K” value (in O) is reported as -4.91 kcal/mol.
In the case of `CCCCCCCC(C)=O`, the “solvation free energy, 298 K” value (in NC=O) is reported as -5.43 kcal/mol and the “solvation free energy, 298 K” value (in O) is reported as -2.5 kcal/mol.
With `CN(C)CCOC(c1ccccc1)c1ccccc1` the “solvation free energy, 298 K” value (in O) was -9.34 kcal/mol.
In the case of `O=C(O)c1cc(O)c(O)c(O)c1`, the “solvation free energy, 298 K” value (in CCO) is reported as -19.8 kcal/mol.
In the case of `FC(F)(F)Cl`, the “solvation free energy, 298 K” value (in CCCCCCC) is reported as -0.6 kcal/mol, the “solvation free energy, 298 K” value (in CCCCCCCC) is reported as -0.53 kcal/mol and the “solvation free energy, 298 K” value (in CCCCCCCC(=O)OCC(COC(=O)CCCCCCC)OC(=O)CCCCCCC) is reported as -0.03 kcal/mol. The “solvation free energy, 298 K” value (in CCCCCCCCC) was -0.46 kcal/mol, the “solvation free energy, 298 K” value (in CCCCCCCCO) was -0.06 kcal/mol and the “solvation free energy, 298 K” value (in CN1CCCC1=O) was 0.23 kcal/mol. For the same compound, the “solvation free energy, 298 K” value (in CN(C)C=O) was 0.08 kcal/mol, the “solvation free energy, 298 K” value (in ClC(Cl)(Cl)Cl) was -0.6 kcal/mol and the “solvation free energy, 298 K” value (in O) was 2.31 kcal/mol.
With `CCCCCCOC(=O)c1ccccc1C(=O)OCCCCCC` the “solvation free energy, 298 K” value (in O) was -6.78 kcal/mol.
For `CCc1cccc2ccccc12`, the “solvation free energy, 298 K” value (in O) was -2.3 kcal/mol.
For `Clc1cc2c(cc1Cl)Oc1c(Cl)c(Cl)c(Cl)c(Cl)c1O2`, the “solvation free energy, 298 K” value (in O) was -3.71 kcal/mol.
With `c1ccc2cc3c(ccc4ccccc43)cc2c1` the “solvation free energy, 298 K” value (in O) was -6.26 kcal/mol.
